From PMC3173180 (The Journal of Biological Chemistry, 2011)

T1: PfhB2-Fic1 (Pasteurella multocida, UniProt Q9CPH9)
T1 sequence (Q9CPH9 2892-3191): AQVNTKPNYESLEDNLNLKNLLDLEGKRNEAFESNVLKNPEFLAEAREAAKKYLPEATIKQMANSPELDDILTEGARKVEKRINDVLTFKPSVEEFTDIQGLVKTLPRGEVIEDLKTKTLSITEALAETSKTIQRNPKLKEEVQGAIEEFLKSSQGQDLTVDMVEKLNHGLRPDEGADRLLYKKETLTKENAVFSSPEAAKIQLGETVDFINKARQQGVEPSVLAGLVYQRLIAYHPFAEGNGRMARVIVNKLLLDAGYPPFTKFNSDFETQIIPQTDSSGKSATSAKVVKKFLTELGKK

T2: HYPE-Fic (Homo sapiens, UniProt Q9BVA6)
T2 sequence (Q9BVA6 181-458): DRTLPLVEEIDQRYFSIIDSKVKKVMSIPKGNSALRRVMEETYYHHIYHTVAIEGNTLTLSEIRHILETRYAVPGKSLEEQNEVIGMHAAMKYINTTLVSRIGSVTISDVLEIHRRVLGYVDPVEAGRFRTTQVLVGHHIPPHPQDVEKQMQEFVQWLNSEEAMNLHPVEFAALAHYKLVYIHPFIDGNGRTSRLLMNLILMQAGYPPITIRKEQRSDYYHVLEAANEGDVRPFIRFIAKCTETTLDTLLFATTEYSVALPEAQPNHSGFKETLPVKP

T3: PfhB2-Fic2 (Pasteurella multocida, UniProt Q9CPH9)
T3 sequence (Q9CPH9 3309-3609): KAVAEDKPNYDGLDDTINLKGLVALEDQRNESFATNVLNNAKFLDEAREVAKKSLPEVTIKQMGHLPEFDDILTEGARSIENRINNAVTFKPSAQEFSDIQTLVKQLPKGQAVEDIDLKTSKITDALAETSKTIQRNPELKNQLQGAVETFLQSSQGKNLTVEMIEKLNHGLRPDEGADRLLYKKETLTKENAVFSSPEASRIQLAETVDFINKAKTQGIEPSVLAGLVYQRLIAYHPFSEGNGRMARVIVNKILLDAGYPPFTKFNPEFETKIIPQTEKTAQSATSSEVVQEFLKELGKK

T4: IbpA-Fic1 (Histophilus somni, UniProt Q06277)
T4 sequence (Q06277 2994-3358): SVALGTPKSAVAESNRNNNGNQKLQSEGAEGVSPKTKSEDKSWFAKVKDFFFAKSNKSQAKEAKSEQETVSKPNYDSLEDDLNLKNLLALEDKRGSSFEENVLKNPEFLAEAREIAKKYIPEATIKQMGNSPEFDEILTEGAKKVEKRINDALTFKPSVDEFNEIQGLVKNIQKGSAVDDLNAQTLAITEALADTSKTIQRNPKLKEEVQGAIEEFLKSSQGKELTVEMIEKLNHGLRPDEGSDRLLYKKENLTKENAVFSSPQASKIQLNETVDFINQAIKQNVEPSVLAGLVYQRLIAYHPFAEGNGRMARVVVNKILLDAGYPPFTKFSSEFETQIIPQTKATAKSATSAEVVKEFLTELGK

B1: IbpA-Fic2 (untagged) (Histophilus somni 2336) (protein)
chain: DETANKVNYQDLEDNLNLKGLISLEDDRNANFESNVLKNEKFLDEAREISKKSIPEATVKQMSHLPEFDDILTEGAKKVESRINKAITFRPSVEEFSEIQDLVKTLPKTKVIEDLSTKTNEITEALAATSKTIQRTPELKEQLKTAIEDFLQNSQGKPLTVQMIENLNHGLRPDEGEGRLLYKKENLTKENAVFSSPEAAKIQLAETVDFINRAKNEGIEPSVVGALVYQRLIAYHPFAEGNGRMARVIVNKILLDAGYPAFTKFSDEFEPQIIPQTKASTKSATSSEVVVEFLKELAKKGSKEDNEQNLEKTDRT

Assays:
[1] = biological target: T1, PfhB2-Fic1; test: SDS-PAGE autoradiography of modified Cdc42; format: biochemical
[2] = biological target: T2, HYPE-Fic; test: SDS-PAGE autoradiography of modified Cdc42; format: biochemical
[3] = biological target: T3, PfhB2-Fic2; test: SDS-PAGE autoradiography of modified Cdc42; format: biochemical
[4] = biological target: T4, IbpA-Fic1; test: SDS-PAGE autoradiography of modified Cdc42; format: biochemical
[5] = substrate: Nc1ncnc2c1ncn2[C@@H]1O[C@H](COP(=O)(O)OP(=O)(O)OP(=O)(O)O)[C@@H](O)[C@H]1O; test: purified protein; details: pH 7.4; 25.0 °C

Molecule | SDS-PAGE autoradiography of modified Cdc42 [1] | SDS-PAGE autoradiography of modified Cdc42 [2] | SDS-PAGE autoradiography of modified Cdc42 [3] | SDS-PAGE autoradiography of modified Cdc42 [4] | Km [5] | kcat [5]
Nc1ncnc2c1ncn2[C@@H]1O[C@H](COP(=O)(O)OP(=O)(O)OP(=O)(O)O)[C@@H](O)[C@H]1O [ATP] | ATP was the preferred nucleotide source for all the Fic domains tested | HYPE-Fic efficiently uses ATP, and CTP to a lesser degree, to modify Cdc42 | ATP was the preferred nucleotide source for all the Fic domains tested | ATP was the preferred nucleotide source for all the Fic domains tested | – | –
B1 | – | – | – | – | 730 ± 40 µM | 111 ± 2 s⁻¹
